In ChEMBL document CHEMBL1144507, “Synthesis and antifungal activity of (Z)-5-arylidenerhodanines” (2007):
Values after ≈ are worked out from the molar mass of the structure shown. One block for each compound: values may come before it.

Experiments:
Cryptococcus neoformans [1] = experiment: Antifungal activity against […] IM 031631 after 48 hrs; format: functional; conditions: Cryptococcus neoformans, 48 h; read-out: MFC
Cryptococcus neoformans [2] = experiment: Antifungal activity against […] IM 052470 after 48 hrs; format: functional
Cryptococcus neoformans [3] = experiment: Antifungal activity against […] ATCC 32264 after 48 hrs; format: functional; conditions: ATCC 32264, 48 h
Cryptococcus neoformans [4] = experiment: Antifungal activity against […] IM 983036 after 48 hrs; format: functional
Cryptococcus neoformans [5] = experiment: Antifungal activity against […] IM 972724 after 48 hrs; format: functional
Cryptococcus neoformans [6] = experiment: Antifungal activity against […] IM 00319 after 48 hrs; format: functional
Cryptococcus neoformans [7] = experiment: Antifungal activity against […] IM 031706 after 48 hrs; format: functional
Cryptococcus neoformans [8] = experiment: Antifungal activity against […] IM 042074 after 48 hrs; format: functional
Cryptococcus neoformans [9] = experiment: Antifungal activity against […] IM 972751 after 48 hrs; format: functional
Cryptococcus neoformans [10] = experiment: Antifungal activity against […] IM 961951 after 48 hrs; format: functional
Cryptococcus neoformans [11] = experiment: Antifungal activity against Candida neoformans IM 983040 after 48 hrs; format: functional
Cryptococcus neoformans [12] = experiment: Antifungal activity against Cryptococcus neoformans ATCC 32264 after 48 hrs; format: functional; conditions: ATCC 32264, 48 h
Aspergillus flavus = experiment: Antifungal activity against Aspergillus flavus ATCC 9170 after 48 hrs; format: functional; conditions: ATCC 9170, 48 h
Aspergillus fumigatus = experiment: Antifungal activity against Aspergillus fumigatus ATCC 26934 after 48 hrs; format: functional; conditions: ATCC 26934, 48 h
Aspergillus niger = experiment: Antifungal activity against Aspergillus niger ATCC 9029 after 48 hrs; format: functional; conditions: ATCC 9029, 48 h
Saccharomyces cerevisiae = experiment: Antifungal activity against Saccharomyces cerevisiae ATCC 9763 after 48 hrs; format: functional; conditions: ATCC 9763, 48 h
Candida albicans [13] = experiment: Antifungal activity against Candida albicans ATCC 10231 after 48 hrs; format: functional; conditions: ATCC 10231, 48 h
Trichophyton benhamiae = experiment: Antifungal activity against Trichophyton mentagrophytes ATCC 9972 after 48 hrs; format: functional, Arthroderma benhamiae; conditions: ATCC 9972, 48 h
Nannizzia gypsea = experiment: Antifungal activity against Microsporum gypseum C115 after 48 hrs; format: functional
Trichophyton rubrum = experiment: Antifungal activity against Trichophyton rubrum C113 after 48 hrs; format: functional
Candida albicans [14] = experiment: Antifungal activity against Candida albicans C127-2000 after 48 hrs; format: functional
Candida albicans [15] = experiment: Antifungal activity against Candida albicans C126-2000 after 48 hrs; format: functional
Torulaspora delbrueckii = experiment: Antifungal activity against Candida coliculosa C122-2000 after 48 hrs; format: functional
Candida albicans [16] = experiment: Antifungal activity against Candida albicans C130-2000 after 48 hrs; format: functional
Candida parapsilosis = experiment: Antifungal activity against Candida parapsilosis C124-2000 after 48 hrs; format: functional; conditions: Lodderomyces parapsilosis
Pichia kudriavzevii = experiment: Antifungal activity against Candida krusei C117-2000 after 48 hrs; format: functional
Candida tropicalis = experiment: Antifungal activity against Candida tropicalis C131-1997 after 48 hrs; format: functional
Candida albicans [17] = experiment: Antifungal activity against Candida albicans C128-2000 after 48 hrs; format: functional
Kluyveromyces marxianus = experiment: Antifungal activity against Candida kefyr C123-2000 after 48 hrs; format: functional
Nakaseomyces glabratus = experiment: Antifungal activity against Candida glabrata C115-2000 after 48 hrs; format: functional
Clavispora lusitaniae = experiment: Antifungal activity against Candida lusitaniae C131-2000 after 48 hrs; format: functional
Candida albicans [18] = experiment: Antifungal activity against Candida albicans C125-2000 after 48 hrs; format: functional

Structure (SMILES): CCC(C)n1ncn(-c2ccc(N3CCN(c4ccc(OCC5COC(Cn6cncn6)(c6ccc(Cl)cc6Cl)O5)cc4)CC3)cc2)c1=O (stereo not drawn) [ITRACONAZOLE]
MFC (Cryptococcus neoformans [1]): 0.25 µg/mL (≈ 0.354 µM) | MFC (Cryptococcus neoformans [2]): < 0.015 µg/mL | MFC (Cryptococcus neoformans [3]): 0.15 µg/mL (≈ 0.213 µM) | MFC (Cryptococcus neoformans [4]): < 0.015 µg/mL | MFC (Cryptococcus neoformans [5]): 0.25 µg/mL (≈ 0.354 µM) | MFC (Cryptococcus neoformans [6]): < 0.015 µg/mL | MFC (Cryptococcus neoformans [7]): 0.5 µg/mL (≈ 0.709 µM) | MFC (Cryptococcus neoformans [8]): < 0.015 µg/mL | MFC (Cryptococcus neoformans [9]): < 0.015 µg/mL | MFC (Cryptococcus neoformans [10]): < 0.015 µg/mL | MFC (Cryptococcus neoformans [11]): < 0.015 µg/mL

MIC (Cryptococcus neoformans [12]): 15.6 µg/mL (≈ 61 µM) | MIC (Aspergillus flavus): 125 µg/mL (≈ 489 µM) | MIC (Aspergillus fumigatus): 125 µg/mL (≈ 489 µM) | MIC (Aspergillus niger): 250 µg/mL (≈ 978 µM) | MIC (Saccharomyces cerevisiae): 250 µg/mL (≈ 978 µM) | MIC (Candida albicans [13]): 250 µg/mL (≈ 978 µM) | MIC (Trichophyton benhamiae): 62.5 µg/mL (≈ 244 µM) | MIC (Nannizzia gypsea): 62.5 µg/mL (≈ 244 µM) | MIC (Trichophyton rubrum): 62.5 µg/mL (≈ 244 µM)
Structure (SMILES): O=C1NC(=S)S/C1=C\c1ccc(Cl)cc1

Structure (SMILES): CC(=O)N1CCN(c2ccc(OCC3COC(Cn4ccnc4)(c4ccc(Cl)cc4Cl)O3)cc2)CC1 (stereo not drawn) [KETOCONAZOLE]
MFC (Candida albicans [14]): 6.25 µg/mL (≈ 11.8 µM) | MFC (Candida albicans [15]): 1.56 µg/mL (≈ 2.94 µM) | MFC (Torulaspora delbrueckii): 0.78 µg/mL (≈ 1.47 µM) | MFC (Candida albicans [16]): 6.25 µg/mL (≈ 11.8 µM) | MFC (Candida parapsilosis): 0.78 µg/mL (≈ 1.47 µM) | MFC (Cryptococcus neoformans [3]): 0.25 µg/mL (≈ 0.47 µM) | MFC (Pichia kudriavzevii): 50 µg/mL (≈ 94.1 µM) | MFC (Candida tropicalis): 0.125 µg/mL (≈ 0.235 µM) | MFC (Candida albicans [17]): 6.25 µg/mL (≈ 11.8 µM) | MFC (Kluyveromyces marxianus): 0.78 µg/mL (≈ 1.47 µM) | MFC (Nakaseomyces glabratus): 1.56 µg/mL (≈ 2.94 µM) | MFC (Clavispora lusitaniae): 25 µg/mL (≈ 47 µM) | MFC (Candida albicans [18]): 6.25 µg/mL (≈ 11.8 µM)
